{
  "source": "patent US8476414B2",
  "about": "“Substrates and internal standards for mass spectrometry detection” (PerkinElmer Health Sciences, Inc., priority 2006, dated 2013)",
  "key": {"[1]": {"test": "Non-enzymatic hydrolysis of substrate in blank sample not containing blood, processed as the dried blood spots", "format": "physicochemical", "conditions": "blank without blood, same assay solution and processing", "description": "For each sample, a disk of 3 mm diameter is punched from the areas of dried blood on a filter paper into a micro-centrifuge tube or a well of a 96-well microtiter plate. The blood disk is then incubated directly with an assay solution containing a substrate directed to the Fabry disease. The assay solution is prepared by mixing a 10 mM solution of substrate (4-(Hexadecanoyl-DL-carnitineamido)phenyl-α-D-galactopyranoside), a 1 mM solution of the internal standard for the enzymatic product (4-(Hexadecanoyl-DL-carnitine[C16-d3]amido)phenol), a 1 M solution of Acetylgalactosamine, and a 0.4 M solution of sodium acetate pH 4.6 buffer in a 8:1:3:38 ratio. The assay mixture containing the blood disk is incubated for 15 to 24 hours at 37° Celsius with orbital shaking (150 rpm) in a thermostatic air shaker. […] For the mass spectrometry analysis, the electrospray source is operated in positive mode, and the ions are detected in the parent ion of 176 scan mode. The amount of enzymatic product is calculated from the ion abundance ratio of the product to the internal standard minus that of a blank.\nThe […] chain for this particular example was chosen to contain 10 carbons and thus decanoyl-carnitine was used in the synthesis of the substrate. […] The final sample solutions were analyzed on a Waters Quattro Micro ESI-triple quadrupole tandem mass spectrometer using a parent ion of 176 scan. […]"}, "acid α-glucosidase (GAA)": {"system": "acid α-glucosidase (GAA)", "test": "Dried blood spot enzyme assay with Pompe substrate, tandem mass spectrometry detection of the enzymatic product", "format": "biochemical, human", "conditions": "pH 3.98", "procedure": "An enzymatic reaction using a substrate directed to Pompe disease and the mass spectrometry analysis thereafter is carried out using the method specified in Example 1 with the following exceptions that sodium citrate was used as buffer. The assay solution for Example 2 was prepared by mixing a buffer solution (0.2 M sodium citrate/sodium phosphate, pH 3.98), a solution of 8 mM Acarbose, a solution of 10 mM substrate (4-Decanoyl-DL-carnitineamido)phenyl-α-D-glucopyranoside), and a solution of 1.0 mM internal standard (4-Decanoyl-DL-carnitine[C10-d3]amido)phenol) in a 93:1:4:2 ratio. The rest of the procedure is as indicated in Example 1.\nIn addition a blank filter paper sample not containing blood was processed following the same procedure as the dried blood spots. The same assay solution containing buffers, substrates, inhibitors and internal standards was used for all three samples. Therefore, all samples received the same concentration of reagents. The final sample solutions were analyzed on a Waters Quattro Micro ESI-triple quadrupole tandem mass spectrometer using a parent ion of 176 scan. The predominant peaks shown in the spectra are those corresponding to the intact substrate, internal standard and corresponding enzymatic product. […]"}, "[2]": {"biological_target": "T1, acid α-galactosidase A (GLA) (Homo sapiens, UniProt P06280)", "T1 construct": "from tissue", "T1 sequence (P06280 32-429)": "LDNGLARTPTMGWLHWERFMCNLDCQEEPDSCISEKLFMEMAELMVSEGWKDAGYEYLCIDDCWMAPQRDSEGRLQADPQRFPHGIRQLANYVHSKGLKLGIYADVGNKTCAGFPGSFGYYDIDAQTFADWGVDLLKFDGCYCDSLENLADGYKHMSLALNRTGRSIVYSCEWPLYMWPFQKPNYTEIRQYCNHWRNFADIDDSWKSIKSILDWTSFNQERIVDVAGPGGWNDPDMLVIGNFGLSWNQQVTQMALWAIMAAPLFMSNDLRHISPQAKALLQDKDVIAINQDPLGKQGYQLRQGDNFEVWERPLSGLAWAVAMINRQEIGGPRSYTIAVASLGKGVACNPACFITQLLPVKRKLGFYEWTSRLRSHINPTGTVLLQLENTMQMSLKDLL", "test": "Dried blood spot enzyme assay with Fabry substrate, tandem mass spectrometry detection of the enzymatic product", "format": "biochemical", "conditions": "with dried blood sample, 15 to 24 hours at 37° Celsius, sodium acetate pH 4.6", "description": "For each sample, a disk of 3 mm diameter is punched from the areas of dried blood on a filter paper into a micro-centrifuge tube or a well of a 96-well microtiter plate. The blood disk is then incubated directly with an assay solution containing a substrate directed to the Fabry disease. The assay solution is prepared by mixing a 10 mM solution of substrate (4-(Hexadecanoyl-DL-carnitineamido)phenyl-α-D-galactopyranoside), a 1 mM solution of the internal standard for the enzymatic product (4-(Hexadecanoyl-DL-carnitine[C16-d3]amido)phenol), a 1 M solution of Acetylgalactosamine, and a 0.4 M solution of sodium acetate pH 4.6 buffer in a 8:1:3:38 ratio. The assay mixture containing the blood disk is incubated for 15 to 24 hours at 37° Celsius with orbital shaking (150 rpm) in a thermostatic air shaker. After the incubation period, an aliquot of pure methanol (without the use of chloroform) is added to each tube or well to terminate the enzymatic reaction. Before going into the mass spectrometer, an aliquot of the incubated aliquot is diluted in pure methanol. For the mass spectrometry analysis, the electrospray source is operated in positive mode, and the ions are detected in the parent ion of 176 scan mode. The amount of enzymatic product is calculated from the ion abundance ratio of the product to the internal standard minus that of a blank."}},
  "data": [
    {"smiles": "CCCCCCCCCC(=O)OC(CC(=O)Nc1ccc(O[C@H]2O[C@H](CO)[C@@H](O)[C@H](O)[C@H]2O)cc1)C[N+](C)(C)C", "note": "(mixture of isomers) [substrate directed to Pompe disease, 4-(Decanoyl-DL-carnitineamido)phenyl-α-D-glucopyranoside]", "values": [
      {"measurement": "non-enzymatic substrate hydrolysis (product found in blank)", "setting": "[1]", "value": "negligible"},
      {"measurement": "conversion of substrate to product (abundance of product relative to internal standard)", "setting": "acid α-glucosidase (GAA); dried blood spot of confirmed Pompe positive newborn", "value": "no noticeable substrate to product conversion"},
      {"measurement": "conversion of substrate to product (abundance of product relative to internal standard)", "setting": "acid α-glucosidase (GAA); dried blood spot of healthy newborn", "value": "highly noticeable"}
    ]},
    {"smiles": "CCCCCCCCCCCCCCCC(=O)OC(CC(=O)Nc1ccc(O[C@H]2O[C@H](CO)[C@H](O)[C@H](O)[C@H]2O)cc1)C[N+](C)(C)C", "note": "(mixture of isomers) [substrate directed to Fabry disease, 4-(Hexadecanoyl-DL-carnitineamido)phenyl-α-D-galactopyranoside]", "values": [
      {"measurement": "enzymatic product of the substrate detected by MS/MS", "setting": "[2]", "value": "significant amount"},
      {"measurement": "non-enzymatic substrate hydrolysis (product found in blank)", "setting": "[1]", "value": "minimal amount"}
    ]}
  ]
}
